This is an account of results in patent publication US11673890B2, “N1-pyrazolospiroketone acetyl-CoA carboxylase inhibitors” (Pfizer Inc., priority 2010, dated 2023).

The target of assay [1] is T1, recombinant human ACC1 (rhACC1) (Homo sapiens, UniProt Q13085, DEL44-44).
T1 construct: infected with recombinant baculovirus containing full length human ACC1 cDNA; made in house; host or cells: SF9 insect cells (baculovirus)
Briefly: recombinant hACC1 Transcreener assay (ADP detection FP). It counts as biochemical. The note with it: recombinant hACC1 Transcreener assay, 50 μM ATP, minimum of n=3; read-out: hACC1. On the procedure:
For example direct inhibition of ACC activity, for the compound of Formula (1) was determined using preparations of recombinant human ACC1 (rhACC1) and recombinant human ACC2 (rhACC2).
[1] Preparation of rhACC1. Two liters of SF9 cells, infected with recombinant baculovirus containing full length human ACC1 cDNA, were suspended in ice-cold lysis buffer (25 mM Tris, pH 7.5; 150 mM NaCl; 10% glycerol; 5 mM imidazole (EMD Bioscience; Gibbstown, N.J.); 2 mM TCEP (BioVectra; Charlottetown, Canada); Benzonase nuclease (10000 U/100 g cell paste; Novagen; Madison, Wis.); EDTA-free protease inhibitor cocktail (1 tab/50 mL; Roche Diagnostics; Mannheim, Germany). Cells were lysed by 3 cycles of freeze-thaw and centrifuged at 40,000×g for 40 minutes (4° C.). Supernatant was directly loaded onto a HisTrap FF crude column (GE Healthcare; Piscataway, N.J.) and eluted with an imidazole gradient up to 0.5 M over 20 column volumes (CV). ACC1-containing fractions were pooled and diluted 1:5 with 25 mM Tris, pH 7.5, 2 mM TCEP, 10% glycerol and direct loaded onto a CaptoQ (GE Healthcare) column and eluted with an NaCl gradient up to 1 M over 20 CV's. Phosphate groups were removed from purified ACC1 by incubation with lambda phosphatase (100 U/10 μM target protein; New England Biolabs; Beverly, Mass.) for 14 hours at 4° C.; okadaic acid was added (1 μM final concentration; Roche Diagnostics) to inhibit the phosphatase. Purified ACC1 was exchanged into 25 mM Tris, pH 7.5, 2 mM TCEP, 10% glycerol, 0.5 M NaCl by 6 hour dialysis at 4° C. Aliquots were prepared and frozen at −80° C.
[2] […] The final conditions for the assay were 50 mM HEPES, pH 7.2, 10 mM MgCl2, 7.5 mM tripotassium citrate, 2 mM DTT, 0.1 mg/mL BSA, 30 μM acetyl-CoA, 50 μM ATP, and 10 mM KHCO3. Typically, a 10 μl reaction was run for 120 min at 25° C., and 10 μl of Transcreener stop and detect buffer was added and the combination incubated at room temp for an additional 1 hour.
All of the examples in both assays were run with a minimum of n=3.

Assay [2] addresses T2, recombinant human ACC2 (rhACC2) (Homo sapiens, UniProt O00763, V2141I).
T2 construct: a full length Cytomax clone of ACC2 was purchased from Cambridge Bioscience Limited; made in house; host or cells: CHO cells (tetracycline-inducible, pcDNA5 FRT TO-TOPO)
Briefly: recombinant hACC2 Transcreener assay (ADP detection FP). It counts as biochemical. The note with it: 50 μM ATP, minimum of n=3. As for the experimental part: For example direct inhibition of ACC activity, for the compound of Formula (1) was determined using preparations of recombinant human ACC1 (rhACC1) and recombinant human ACC2 (rhACC2). Representative sequences of the recombinant human ACC1 and ACC2 that can be used in the assay are provided in FIG. 1 (SEQ ID NO. 1) and FIG. 2 (SEQ. ID NO. 2), respectively.
[3] Preparation of rhACC2. Human ACC2 inhibition was measured using purified recombinant human ACC2 (hrACC2). Briefly, a full length Cytomax clone of ACC2 was purchased from Cambridge Bioscience Limited and was sequenced and subcloned into PCDNA5 FRT TO-TOPO (Invitrogen, Carlsbad, Calif.). The ACC2 was expressed in CHO cells by tetracycline induction and harvested in 5 liters of DMEM/F12 with glutamine, biotin, hygromycin and blasticidin with 1 μg/mL tetracycline (Invitrogen, Carlsbad, Calif.). The conditioned medium containing ACC2 was then applied to a Softlink Soft Release Avidin column (Promega, Madison, Wis.) and eluted with 5 mM biotin. 4 mgs of ACC2 were eluted at a concentration of 0.05 mg/mL (determined by A280) with an estimated purity of 95% ([…]). The purified ACC2 was dialyzed in 50 mM Tris, 200 mM NaCl, 4 mM DTT, 2 mM EDTA, and 5% glycerol. The pooled protein was frozen and stored at −80° C., with no loss of activity upon thawing. For measurement of ACC2 activity and assessment of ACC2 inhibition, test compounds were dissolved in DMSO and added to the rhACC2 enzyme as a 5× stock with a final DMSO concentration of 1%.
[4] Measurement of human ACC2 inhibition. hACC2 was assayed in a Costar #3676 (Costar, Cambridge, Mass.) 384-well plate using the Transcreener ADP detection FP assay kit (Bellbrook Labs, Madison, Wis.) using the manufacturer's recommended conditions for a 50 uM ATP reaction. The final conditions for the assay were 50 mM HEPES, pH 7.2, 5 mM MgCl2, 5 mM tripotassium citrate, 2 mM DTT, 0.1 mg/mL BSA, 30 μM acetyl-CoA, 50 μM ATP, and 8 mM KHCO3. Typically, a 10 μl reaction was run for 50 min at 25° C., and 10 μl of Transcreener stop and detect buffer was added and the combination incubated at room temp for an additional 1 hour. The data was acquired on an Envision Fluorescence reader (Perkinelmer) using a 620 excitation Cy5 FP general dual mirror, 620 excitation Cy5 FP filter, 688 emission (S) and a 688 (P) emission filter.
The results using the recombinant hACC1 and recombinant hACC2 Transcreener assays described above are summarized in the table below for the Compounds of Formula (I) exemplified in the Examples above. All of the examples in both assays were run with a minimum of n=3.

T2 sequence (O00763 whole entry V2141I): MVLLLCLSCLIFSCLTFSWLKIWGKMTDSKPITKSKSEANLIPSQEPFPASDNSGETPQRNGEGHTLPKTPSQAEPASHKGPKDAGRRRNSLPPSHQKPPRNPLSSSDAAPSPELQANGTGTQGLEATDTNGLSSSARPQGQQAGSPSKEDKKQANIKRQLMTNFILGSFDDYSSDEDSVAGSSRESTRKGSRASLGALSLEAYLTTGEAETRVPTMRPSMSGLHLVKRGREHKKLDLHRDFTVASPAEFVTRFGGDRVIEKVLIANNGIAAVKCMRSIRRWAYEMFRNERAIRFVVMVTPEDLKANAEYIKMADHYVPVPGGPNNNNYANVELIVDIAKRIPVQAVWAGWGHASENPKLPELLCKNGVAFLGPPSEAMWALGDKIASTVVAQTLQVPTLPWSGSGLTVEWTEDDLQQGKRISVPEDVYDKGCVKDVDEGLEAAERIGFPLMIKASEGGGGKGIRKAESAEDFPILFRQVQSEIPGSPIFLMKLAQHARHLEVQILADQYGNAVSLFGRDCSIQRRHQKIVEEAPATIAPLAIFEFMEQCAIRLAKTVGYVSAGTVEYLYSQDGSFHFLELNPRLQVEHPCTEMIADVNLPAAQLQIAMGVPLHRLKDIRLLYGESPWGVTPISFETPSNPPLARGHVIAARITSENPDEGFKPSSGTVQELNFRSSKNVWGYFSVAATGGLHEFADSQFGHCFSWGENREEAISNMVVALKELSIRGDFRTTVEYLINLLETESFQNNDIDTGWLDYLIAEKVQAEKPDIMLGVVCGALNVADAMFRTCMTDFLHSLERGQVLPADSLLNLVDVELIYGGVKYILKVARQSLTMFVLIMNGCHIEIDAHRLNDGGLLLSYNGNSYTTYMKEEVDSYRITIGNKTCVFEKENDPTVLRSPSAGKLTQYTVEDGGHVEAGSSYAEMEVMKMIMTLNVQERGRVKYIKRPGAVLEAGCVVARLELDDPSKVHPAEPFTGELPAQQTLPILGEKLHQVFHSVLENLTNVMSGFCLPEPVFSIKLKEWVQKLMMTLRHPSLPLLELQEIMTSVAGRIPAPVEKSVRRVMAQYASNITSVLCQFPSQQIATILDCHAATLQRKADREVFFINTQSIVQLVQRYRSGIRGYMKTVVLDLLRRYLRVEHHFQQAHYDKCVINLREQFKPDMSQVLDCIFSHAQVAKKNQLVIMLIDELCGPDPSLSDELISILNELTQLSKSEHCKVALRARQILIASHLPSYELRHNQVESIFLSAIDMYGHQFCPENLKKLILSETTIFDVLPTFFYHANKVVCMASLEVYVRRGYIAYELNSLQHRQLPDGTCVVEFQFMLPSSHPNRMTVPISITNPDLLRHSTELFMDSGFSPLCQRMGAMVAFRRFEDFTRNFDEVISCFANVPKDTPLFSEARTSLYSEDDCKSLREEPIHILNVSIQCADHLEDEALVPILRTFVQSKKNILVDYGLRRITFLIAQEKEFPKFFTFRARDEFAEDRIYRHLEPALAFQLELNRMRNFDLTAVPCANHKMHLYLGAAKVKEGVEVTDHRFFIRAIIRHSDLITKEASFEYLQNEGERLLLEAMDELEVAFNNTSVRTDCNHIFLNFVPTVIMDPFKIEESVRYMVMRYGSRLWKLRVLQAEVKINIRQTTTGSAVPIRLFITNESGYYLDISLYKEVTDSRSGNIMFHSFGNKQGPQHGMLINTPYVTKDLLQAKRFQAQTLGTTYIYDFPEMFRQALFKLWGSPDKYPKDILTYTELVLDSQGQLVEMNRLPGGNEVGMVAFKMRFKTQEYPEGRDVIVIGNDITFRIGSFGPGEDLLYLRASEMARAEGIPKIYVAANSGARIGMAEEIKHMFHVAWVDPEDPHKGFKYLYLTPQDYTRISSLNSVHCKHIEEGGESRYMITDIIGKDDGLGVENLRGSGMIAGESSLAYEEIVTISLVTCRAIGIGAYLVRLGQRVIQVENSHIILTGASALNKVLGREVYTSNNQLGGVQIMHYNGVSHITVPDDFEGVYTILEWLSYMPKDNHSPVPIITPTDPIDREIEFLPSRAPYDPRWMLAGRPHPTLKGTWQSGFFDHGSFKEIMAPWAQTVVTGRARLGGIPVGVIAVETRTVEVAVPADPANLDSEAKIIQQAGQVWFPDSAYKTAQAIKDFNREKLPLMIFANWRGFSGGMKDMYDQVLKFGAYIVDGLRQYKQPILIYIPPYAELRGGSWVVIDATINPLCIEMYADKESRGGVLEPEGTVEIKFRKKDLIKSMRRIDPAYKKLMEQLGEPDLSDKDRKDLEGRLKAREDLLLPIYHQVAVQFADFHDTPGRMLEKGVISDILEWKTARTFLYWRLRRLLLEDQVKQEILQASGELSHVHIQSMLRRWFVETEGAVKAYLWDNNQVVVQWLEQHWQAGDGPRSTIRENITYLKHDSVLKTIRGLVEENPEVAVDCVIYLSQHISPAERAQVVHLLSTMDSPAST

Turning to `CCNc1nc(-c2cccc(C(=O)O)c2)ccc1C(=O)N1CCC2(CC1)CC(=O)c1c(cnn1C(C)(C)C)C2` [Example 19, 3-{5-[(1-tert-butyl-7-oxo-1,4,6,7-tetrahydro-1′H-spiro[indazole-5,4′-piperidin]-1′-yl)carbonyl]-6-(ethylamino)pyridin-2-yl}benzoic acid], the IC50 amounted to 837 nM in assay [1] and 487 nM in assay [2].
With “3-{2-[(1-isopropyl-7-oxo-1,4,6,7-tetrahydro-1′H-spiro[indazole-5,4′-piperidin]-1′-yl)carbonyl]-1H-benzimidazol-4-yl}benzoic acid [Example 45]”, the values for the IC50 in assay [1] and in assay [2] were 4.9 nM and 10 nM, respectively.
In the case of `CC(C)n1ncc2c1C(=O)CC1(CCN(C(=O)c3cc4c(-c5ccc(C(=O)O)cc5)ccnc4[nH]3)CC1)C2` [Example 29, 4-{2-[(1-isopropyl-7-oxo-1,4,6,7-tetrahydro-1′H-spiro[indazole-5,4′-piperidin]-1′-yl)carbonyl]-1H-pyrrolo[2,3-b]pyridin-4-yl}benzoic acid], the IC50 in assay [1] is 13.7 nM; in assay [2], 6.16 nM.
On to “4-{5-[(1-tert-butyl-7-oxo-1,4,6,7-tetrahydro-1′H-spiro[indazole-5,4′-piperidin]-1′-yl)carbonyl]-6-(ethylamino)pyridin-2-yl}benzoic acid [Example 13]”, for which the IC50 in assay [1] worked out at 221 nM; in assay [2] it was 143 nM.
Regarding `CC(C)n1ncc2c1C(=O)CC1(CCN(C(=O)c3cc4c(-c5cccc(C(=O)O)c5)cncc4[nH]3)CC1)C2` [Example 40, 3-{2-[(1-isopropyl-7-oxo-1,4,6,7-tetrahydro-1′H-spiro[indazole-5,4′-piperidin]-1′-yl)carbonyl]-1H-pyrrolo[2,3-c]pyridin-4-yl}benzoic acid], the figures for the IC50 in assay [1] and in assay [2] were 10.2 nM and 6.1 nM, respectively.
Regarding `CC(C)n1ncc2c1C(=O)CC1(CCN(C(=O)c3cc(-c4cccc(C(=O)O)c4)[nH]c(=O)c3)CC1)C2` [Example 3, 3-(4-(1-isopropyl-7-oxo-1,4,6,7-tetrahydrospiro[indazole-5,4′-piperidine]-1′-ylcarbonyl)-6-oxo-1,6-dihydropyridin-2-yl)benzoic acid], the IC50 in assay [1] turned out to be 5400 nM; in assay [2], 2260 nM.
`CC(C)Nc1nc(-c2ccc(C(=O)O)cc2)ccc1C(=O)N1CCC2(CC1)CC(=O)c1c(cnn1C(C)C)C2` [Example 25, 4-{6-(isopropylamino)-5-[(1-isopropyl-7-oxo-1,4,6,7-tetrahydro-1′H-spiro[indazole-5,4′-piperidin]-1′-yl)carbonyl]pyridin-2-yl}benzoic acid]: the IC50 in assay [1] came to 600 nM; in assay [2] it was 202 nM.
Consider `COc1ccc(-c2cccc3[nH]c(C(=O)N4CCC5(CC4)CC(=O)c4c(cnn4C(C)C)C5)cc23)cc1CC(=O)O` [Example 31, (5-{2-[(1-isopropyl-7-oxo-1,4,6,7-tetrahydro-1′H-spiro[indazole-5,4′-piperidin]-1′-yl)carbonyl]-1H-indol-4-yl}-2-methoxyphenyl)acetic acid], for which the IC50 in assay [1] is 23.1 nM; in assay [2], 54.8 nM.
For the molecule `CC(C)Nc1nc(-c2ccc(C(=O)O)cc2)ccc1C(=O)N1CCC2(CC1)CC(=O)c1c(cnn1C(C)(C)C)C2` [Example 24, 4-{5-[(1-tert-butyl-7-oxo-1,4,6,7-tetrahydro-1′H-spiro[indazole-5,4′-piperidin]-1′-yl)carbonyl]-6-(isopropylamino)pyridin-2-yl}benzoic acid], the IC50 in assay [1] stood at 3140 nM; in assay [2] it was 557 nM.
With `CC(C)n1ncc2c1C(=O)CC1(CCN(C(=O)c3cc4c(-c5ccc(C(=O)O)cc5)nccc4[nH]3)CC1)C2` [Example 30, 4-{2-[(1-isopropyl-7-oxo-1,4,6,7-tetrahydro-1′H-spiro[indazole-5,4′-piperidin]-1′-yl)carbonyl]-1H-pyrrolo[3,2-c]pyridin-4-yl}benzoic acid], the IC50 in assay [1] came out at 16.1 nM; in assay [2], 18.8 nM.
On to `CC(C)n1ncc2c1C(=O)CC1(CCN(C(=O)c3nc4cc(-c5cccc(C(=O)O)c5)ccc4[nH]3)CC1)C2` [Example 47, 3-{2-[(1-isopropyl-7-oxo-1,4,6,7-tetrahydro-1′H-spiro[indazole-5,4′-piperidin]-1′-yl)carbonyl]-1H-benzimidazol-5-yl}benzoic acid], for which the IC50 in assay [1] was 32.5 nM; in assay [2], 25.7 nM.
With `CC(C)(C)n1ncc2c1C(=O)CC1(CCN(C(=O)c3cc4c(-c5cccc(C(=O)O)c5)cccc4[nH]3)CC1)C2` [Example 17, 3-{2-[(1-tert-butyl-7-oxo-1,4,6,7-tetrahydro-1′H-spiro[indazole-5,4′-piperidin]-1′-yl)carbonyl]-1H-indol-4-yl}benzoic acid], the IC50 in assay [1] was determined as 15.6 nM; in assay [2], 21.6 nM.
On the same counts, the results for `CC(C)(C)n1ncc2c1C(=O)CC1(CCN(C(=O)c3ccc(OCc4ccc(C(=O)O)cc4)cc3)CC1)C2` [Example 1, 4-((4-(1-Tert-butyl-7-oxo-1,4,6,7-tetrahydrospiro[indazole-5,4′-piperidine]-1′-ylcarbonyl)phenoxy)methyl)benzoic acid] are 176 nM and 184 nM.
For `CC(C)n1ncc2c1C(=O)CC1(CCN(C(=O)c3cc4c(-c5ccc(C(=O)O)cc5)cccc4[nH]3)CC1)C2` [Example 16, 4-{2-[(1-isopropyl-7-oxo-1,4,6,7-tetrahydro-1′H-spiro[indazole-5,4′-piperidin]-1′-yl)carbonyl]-1H-indol-4-yl}benzoic acid], the IC50 was 9.75 nM in assay [1] and 11.6 nM in assay [2].
On the same counts, the results for `CC(C)n1ncc2c1C(=O)CC1(CCN(C(=O)c3cc4c(-c5ccc(C(=O)O)cc5)cncc4[nH]3)CC1)C2` [Example 38, 4-{2-[(1-isopropyl-7-oxo-1,4,6,7-tetrahydro-1′H-spiro[indazole-5,4′-piperidin]-1′-yl)carbonyl]-1H-pyrrolo[2,3-c]pyridin-4-yl}benzoic acid] are 33.5 nM and 19.9 nM.
On the same counts, the results for `CC(C)n1ncc2c1C(=O)CC1(CCN(C(=O)c3ccc(-c4cccc(C(=O)O)c4)cc3)CC1)C2` [Example 7, 4′-[(1-isopropyl-7-oxo-1,4,6,7-tetrahydro-1′H-spiro[indazole-5,4′-piperidin]-1′-yl)carbonyl]biphenyl-3-carboxylic acid] are 113 nM and 74.2 nM.
